US12673930B2, “Thiophene HSD17B13 inhibitors and uses thereof” (INIPHARM, INC., priority 2020, dated 2026)

Tests used:
HSD17B13 enzyme [1] = molecular target: T1, HSD17B13 enzyme (Homo sapiens, UniProt Q7Z5P4); test: NADH detection assay (fluorescence based Leukotriene B3 (LTB3) assay) for HSD17B13 activity; assay type: biochemical; settings: substrate 25 μM LTB3, 3 mM NAD+, 125 nM HSD17B13 enzyme, 1 hour at 26.5° C
T1 construct: His; made in house; host or cells: E. coli
T1 sequence (Q7Z5P4 20-300): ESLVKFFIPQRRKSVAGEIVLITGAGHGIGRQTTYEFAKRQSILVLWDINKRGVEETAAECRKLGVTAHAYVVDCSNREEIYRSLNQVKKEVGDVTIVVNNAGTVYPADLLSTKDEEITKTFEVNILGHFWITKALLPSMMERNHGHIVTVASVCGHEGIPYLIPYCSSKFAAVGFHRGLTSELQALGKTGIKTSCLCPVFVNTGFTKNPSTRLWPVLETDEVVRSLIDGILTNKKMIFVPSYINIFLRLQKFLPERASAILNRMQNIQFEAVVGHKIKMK
Description: The fluorescence based Leukotriene B3 (LTB3) assay monitors the fluorescence of NADH, which is generated from NAD+ during the dehydrogenation of the substrate LTB3. The reactions were performed in a 384-well plates (Greiner; #655076) in a 20 μl reaction volume containing the following reagents (final concentrations): 25 μM LTB3 (Cayman; #20109); 3 mM NAD^+ (Sigma; #N0623); 125 nM HSD17B13 enzyme (in-house; E. coli expressed His-tagged, purified, soluble protein); 1 M potassium phosphate buffer, pH 7.4; and 1% DMSO. Reactions were initiated by co-addition of NAD+ and enzyme, and monitored for 1 hour at 26.5° C. Generation of NADH was measured as the fluorescence signal (Excitation at 340 nm and Emission at 445 nm) at 1 hour minus the baseline fluorescence at t=0. Fluorescence signals in the absence of LTB3 (negative control values), were subtracted from all values so that the results reflected substrate-dependent production of NADH. NADH standards were included to allow the conversion of relative fluorescence units into rates of enzyme activity. Enzyme activity in the presence of test compounds was expressed as a percentage of the uninhibited enzyme activity, and plotted versus inhibitor concentration. Non-linear regression was performed using a four-parameter logistic model and Microsoft Excel Solver® software. Ten concentrations of inhibitor were tested in duplicate (in the range of 30 μM-2.5 nM). Two independent concentration response assays were performed and the geometric mean is reported, =/−the SEM.

HSD17B13 enzyme [2] = molecular target: T1, HSD17B13 enzyme; test: LC/MS estrone detection assay (conversion of estradiol to estrone by HSD17B13); assay type: biochemical; settings: substrate 4 μM estradiol, 6 mM NAD+, 30 nM HSD17B13 enzyme, 2 hours at 26.5° C
Description: The liquid chromatography/mass spectrometry (LC/MS) estrone detection assay monitors the conversion of estradiol to estrone by HSD17B13. This assay was performed in a 96 wp format (Eppendorf deep well Plate 96/500) in an 80 μl reaction volume containing: 4 μM estradiol (E2; Cayman; Ser. No. 10/006,315); 6 mM NAD^+ (Sigma; #N0623), and 30 nM HSD17B13 enzyme (in-house; E. coli expressed His-tagged, purified, soluble protein), in a buffer containing 1M potassium phosphate buffer pH 7.4 and 0.5% vehicle (DMSO). Reactions were incubated for 2 hours at 26.5° C., and estradiol (E2) conversion to estrone (E1) was quantitated by LC-MS/MS based analyte detection for E1 using LCMS grade reagents. Reactions were terminated by the addition of two volumes of acetonitrile (MeCN; LCMS grade; CAS #75/05/8) containing deuterated (D4)-E1 as internal standard (Clear Synth; #CS-T-54273; 500 ng/mL final concentration). Samples were applied to pre-prepared Bond Elut-C18 extraction cartridges (3 mL; Agilent; Ser. No. 12/102,028), and washed and eluted in MeCN. Eluates were dried under nitrogen and re-suspended in 60% methanol (LCMS grade methanol; CAS #67/56/1) before submission for analysis. Standard curves for E1 were included for quantification. Analysis of samples was undertaken on a XBridge BEH C18 column (Waters; #186003033) using 0.1% Diethyl Amine in MeCN (mobile phase A; DEA CAS #109-89-7) and 0.1% Diethyl Amine in milli-Q water (mobile phase B) in a 3 min gradient up to 25% B. Analytes were detected in negative mode using MRM analysis, with E2 having a RT of 1.85 min and E1 having a RT of 2 min. Activity of the enzyme in the absence of NAD^+, was subtracted from samples to yield values for specific enzyme activity. Enzyme activity in the presence of test samples was expressed as a percentage of the uninhibited enzyme activity, and plotted versus inhibitor concentration. Non-linear regression was performed using the Morrison equation (see below) for tight binding inhibitors on GraphPad Prism software (GraphPad Software, La Jolla, Calif.). All assessments were undertaken in duplicate evaluations which were pooled during the extraction process and subsequently injected as duplicates for LC-MS/MS analysis. Y=Vo*(1−((((Et+X+Q)−(((Et+X+Q)^2)−4*Et*X)^0.5))/(2*Et))) Morrison equation:
Y=Activity in the presence of inhibitor; Vo=Activity in absence of inhibitor; Et=Total enzyme concentration; X=inhibitor concentration; and Q=(Ki*(1+(S/Km))), where Ki is the inhibition constant, Km is the Michaelis constant, and S is the substrate concentration.

Structure (SMILES)	IC50 (HSD17B13 enzyme [1])	IC50 (HSD17B13 enzyme [2])
COc1ccccc1CCNC(=O)c1sccc1NC(=O)c1cc(Cl)c(O)c(C(C)C)c1 [Example 23, 3-(3-chloro-4-hydroxy-5-isopropylbenzamido)-N-(2-methoxyphenethyl)thiophene-2-carboxamide]	> 10000 nM	–
COc1ccccc1CCNC(=O)c1sccc1NC(=O)Cc1ccc(O)c(Cl)c1 [Example 20, 3-(2-(3-chloro-4-hydroxyphenyl)acetamido)-N-(2-methoxyphenethyl)thiophene-2-carboxamide]	> 10000 nM	100 to 1000 nM
COc1ccccc1CCNC(=O)c1sccc1NC(=O)c1ccc(S(N)(=O)=O)c(Cl)c1 [Example 26, 3-(3-chloro-4-sulfamoylbenzamido)-N-(2-methoxyphenethyl)thiophene-2-carboxamide]	> 10000 nM	> 10000 nM
COc1ccccc1CCNC(=O)c1sccc1NC(=O)c1ccc(N2CCC(C(=O)O)C2)c(Cl)c1 (stereo not shown) [Example 29, 1-(2-chloro-4-((2-((2-methoxyphenethyl)carbamoyl)thiophen-3-yl)carbamoyl)phenyl)pyrrolidine-3-carboxylic acid]	> 10000 nM	1000 to 10000 nM
COc1ccccc1CCNC(=O)c1sccc1NC(=O)c1ccc(OCC(=O)O)c(Cl)c1 [Example 11, 2-(2-chloro-4-((2-((2-methoxyphenethyl)carbamoyl)thiophen-3-yl)carbamoyl)phenoxy)acetic acid]	> 10000 nM	–
COc1ccccc1CCNC(=O)c1sccc1NC(=O)c1ccc(O)c(C(F)(F)F)c1 [Example 33, 3-(4-hydroxy-3-(trifluoromethyl)benzamido)-N-(2-methoxyphenethyl)thiophene-2-carboxamide]	> 10000 nM	≤ 100 nM
COc1ccccc1CCNC(=O)c1sccc1NC(=O)c1ccc(OC(F)(F)C(=O)O)c(Cl)c1 [Example 25, 2-(2-chloro-4-((2-((2-methoxyphenethyl)carbamoyl)thiophen-3-yl)carbamoyl)phenoxy)-2,2-difluoroacetic acid]	> 10000 nM	1000 to 10000 nM
O=C(Nc1sc(Cl)cc1C(=O)NCCN1CCOCC1)c1ccc(O)c(F)c1 [Example 41, 5-chloro-2-(3-fluoro-4-hydroxybenzamido)-N-(2-morpholinoethyl)thiophene-3-carboxamide.]	–	100 to 1000 nM
COc1ccccc1CCNC(=O)c1sccc1NC(=O)c1ccc(CCC(=O)O)c(F)c1 [Example 22, 3-(2-fluoro-4-((2-((2-methoxyphenethyl)carbamoyl)thiophen-3-yl)carbamoyl)phenyl) propanoic acid]	> 10000 nM	–
COc1ccccc1CCNC(=O)c1sccc1NC(=O)c1cnc(O)c(Cl)c1 [Example 21, 5-chloro-6-hydroxy-N-(2-((2-methoxyphenethyl)carbamoyl)thiophen-3-yl)nicotinamide]	> 10000 nM	–
O=C(Nc1sc(Cl)cc1C(=O)NCCc1ccccc1OC(F)(F)F)c1ccc(O)c(Cl)c1 [Example 40, 5-chloro-2-(3-chloro-4-hydroxybenzamido)-N-(2-(trifluoromethoxy)phenethyl)thiophene-3-carboxamide]	–	≤ 100 nM

Other lines, results leading:

IC50 (HSD17B13 enzyme [1])	IC50 (HSD17B13 enzyme [2])	Structure (SMILES)
1000 to 5000 nM	100 to 1000 nM	COc1ccccc1CCNC(=O)c1c(NC(=O)c2ccc(O)c(Cl)c2)sc2c1CCCC2 [Example 14, 2-(3-chloro-4-hydroxybenzamido)-N-(2-methoxyphenethyl)-4,5,6,7-tetrahydrobenzo[b]thiophene-3-carboxamide]
≤ 1000 nM	≤ 100 nM	COc1ccccc1CNC(=O)c1sccc1NC(=O)c1ccc(O)c(Cl)c1 [Example 8, 3-(3-chloro-4-hydroxybenzamido)-N-(2-methoxybenzyl)thiophene-2-carboxamide]
≤ 1000 nM	≤ 100 nM	COc1ccccc1CCNC(=O)c1c(NC(=O)c2ccc(O)c(F)c2)sc(C)c1C [Example 16, 2-(3-fluoro-4-hydroxybenzamido)-N-(2-methoxyphenethyl)-4,5-dimethylthiophene-3-carboxamide]
≤ 1000 nM	≤ 100 nM	COc1ccccc1CCNC(=O)c1sc(Cl)cc1NC(=O)c1ccc(O)c(Cl)c1 [Example 17, 5-chloro-3-(3-chloro-4-hydroxybenzamido)-N-(2-methoxyphenethyl)thiophene-2-carboxamide]
≤ 1000 nM	100 to 1000 nM	COc1ccccc1CCNC(=O)c1sc2ccccc2c1NC(=O)c1ccc(O)c(Cl)c1 [Example 31, 3-(3-chloro-4-hydroxybenzamido)-N-(2-methoxyphenethyl)benzo[b] thiophene-2-carboxamide]
≤ 1000 nM	≤ 100 nM	O=C(Nc1ccsc1C(=O)NCCc1ccccc1F)c1ccc(O)c(Cl)c1 [Example 9, 3-(3-chloro-4-hydroxybenzamido)-N-(2-fluorophenethyl)thiophene-2-carboxamide]
≤ 1000 nM	100 to 1000 nM	CCNC(=O)c1sccc1NC(=O)c1ccc(O)c(Cl)c1 [Example 5, 3-(3-chloro-4-hydroxybenzamido)-N-ethylthiophene-2-carboxamide]
≤ 1000 nM	–	COc1ccccc1CCNC(=O)c1sccc1NC(=O)c1cc(Cl)c(O)c(Cl)c1 [Example 32, 3-(3,5-dichloro-4-hydroxybenzamido)-N-(2-methoxyphenethyl)thiophene-2-carboxamide]
1000 to 5000 nM	100 to 1000 nM	COc1ccccc1CCNC(=O)c1sc2nccnc2c1NC(=O)c1ccc(O)c(Cl)c1 [Example 12, 7-(3-chloro-4-hydroxybenzamido)-N-(2-methoxyphenethyl)thieno[2,3-b]pyrazine-6-carboxamide]
≤ 1000 nM	≤ 100 nM	CC(C)(C)CCNC(=O)c1sccc1NC(=O)c1ccc(O)c(Cl)c1 [Example 3, 3-(3-chloro-4-hydroxybenzamido)-N-(3,3-dimethylbutyl)thiophene-2-carboxamide]
≤ 1000 nM	≤ 100 nM	O=C(Nc1ccsc1C(=O)NCc1c[nH]c2ccccc12)c1ccc(O)c(Cl)c1 [Example 4, N-((1H-indol-3-yl)methyl)-3-(3-chloro-4-hydroxybenzamido)thiophene-2-carboxamide]
≤ 1000 nM	≤ 100 nM	O=C(Nc1ccsc1C(=O)NC1COc2ccccc2C1)c1ccc(O)c(Cl)c1 (stereo not shown) [Example 6, 3-(3-chloro-4-hydroxybenzamido)-N-(chroman-3-yl)thiophene-2-carboxamide]
≤ 1000 nM	≤ 100 nM	COc1ccccc1CCNC(=O)c1sccc1NC(=O)c1ccc(O)c(F)c1 [Example 30, 3-(3-fluoro-4-hydroxybenzamido)-N-(2-methoxyphenethyl)thiophene-2-carboxamide]
≤ 1000 nM	≤ 100 nM	CC(C)CNC(=O)c1sccc1NC(=O)c1ccc(O)c(Cl)c1 [Example 2, 3-(3-chloro-4-hydroxybenzamido)-N-isobutylthiophene-2-carboxamide]
